Assay results from the supplement of paper PMC10307832.

Legend:
Assay in all cases: relative viability (nuclei count vs DMSO), 5 days (fraction); higher = more cells survive
ABC-1 = tested on: ABC-1
In short: (§1)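 Relative viability divides the nuclei count in treated wells by that in vehicle wells. Lung cancer cell lines were seeded in 1536-well plates, dosed by pin tool the next day, and fixed and stained after 5 days in one step with final 0.05% Triton X-100, 1% formaldehyde and 1 ug/ml Hoechst. Dosing was a single drug or a fixed anchor-drug dose plus five library-drug doses (not always all listed) in √10 steps, and values are medians of duplicate plates imaged at 4×.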

COR-L23 = tested on: COR-L23
In short: as §1

ChaGo-K-1 = tested on: ChaGo-K-1
In short: as §1

EPLC-272H = tested on: EPLC-272H
In short: as §1

HCC-15 = tested on: HCC-15
In short: as §1

HCC-366 = tested on: HCC-366
In short: as §1

HCC-44 = tested on: HCC-44
In short: as §1

HCC-827 = tested on: HCC-827
In short: as §1

LCLC-103H = tested on: LCLC-103H
In short: as §1

NCI-H1355 = tested on: NCI-H1355
In short: as §1

NCI-H1734 = tested on: NCI-H1734
In short: as §1

NCI-H1793 = tested on: NCI-H1793
In short: as §1

NCI-H1944 = tested on: NCI-H1944
In short: as §1

NCI-H2009 = tested on: NCI-H2009
In short: as §1

NCI-H2023 = tested on: NCI-H2023
In short: as §1

NCI-H2085 = tested on: NCI-H2085
In short: as §1

NCI-H2228 = tested on: NCI-H2228
In short: as §1

NCI-H2347 = tested on: NCI-H2347
In short: as §1

NCI-H2405 = tested on: NCI-H2405
In short: as §1

NCI-H3122 = tested on: NCI-H3122
In short: as §1

PC-14 = tested on: PC-14
In short: as §1

SW 1573 = tested on: SW 1573
In short: as §1

CCNC(=O)c1noc(-c2cc(C(C)C)c(O)cc2O)c1-c1ccc(CN2CCOCC2)cc1 [Luminespib] + Cc1cc(Nc2cc(N3CCN(C)CC3)nc(Sc3ccc(NC(=O)C4CC4)cc3)n2)n[nH]1 [Tozasertib] (partner 0.1 µM)
relative viability (ABC-1; first compound 0.002 µM): 0.196
relative viability (ABC-1; first compound 0.006325 µM): 0.21
relative viability (ABC-1; first compound 0.02 µM): 0.139
relative viability (ABC-1; first compound 0.06325 µM): 0.173
relative viability (ABC-1; first compound 0.2 µM): 0.14
relative viability (COR-L23; first compound 0.002 µM): 0.237
relative viability (COR-L23; first compound 0.006325 µM): 0.192
relative viability (COR-L23; first compound 0.02 µM): 0.272
relative viability (COR-L23; first compound 0.06325 µM): 0.0698
relative viability (COR-L23; first compound 0.2 µM): 0.0682
relative viability (ChaGo-K-1; first compound 0.002 µM): 0.23
relative viability (ChaGo-K-1; first compound 0.006325 µM): 0.228
relative viability (ChaGo-K-1; first compound 0.02 µM): 0.159
relative viability (ChaGo-K-1; first compound 0.06325 µM): 0.186
relative viability (ChaGo-K-1; first compound 0.2 µM): 0.201
relative viability (EPLC-272H; first compound 0.002 µM): 0.282
relative viability (EPLC-272H; first compound 0.006325 µM): 0.296
relative viability (EPLC-272H; first compound 0.06325 µM): 0.399
relative viability (EPLC-272H; first compound 0.2 µM): 0.22
relative viability (HCC-15; first compound 0.002 µM): 0.466
relative viability (HCC-15; first compound 0.006325 µM): 0.441
relative viability (HCC-15; first compound 0.02 µM): 0.444
relative viability (HCC-15; first compound 0.06325 µM): 0.173
relative viability (HCC-15; first compound 0.2 µM): 0.0953
relative viability (HCC-366; first compound 0.002 µM): 0.13
relative viability (HCC-366; first compound 0.006325 µM): 0.105
relative viability (HCC-366; first compound 0.02 µM): 0.108
relative viability (HCC-366; first compound 0.06325 µM): 0.228
relative viability (HCC-366; first compound 0.2 µM): 0.0502
relative viability (HCC-44; first compound 0.002 µM): 1.01
relative viability (HCC-44; first compound 0.006325 µM): 0.766
relative viability (HCC-44; first compound 0.02 µM): 0.99
relative viability (HCC-44; first compound 0.06325 µM): 0.169
relative viability (HCC-44; first compound 0.2 µM): 0.159
relative viability (HCC-827; first compound 0.002 µM): 0.425
relative viability (HCC-827; first compound 0.006325 µM): 0.465
relative viability (HCC-827; first compound 0.02 µM): 0.398
relative viability (HCC-827; first compound 0.06325 µM): 0.41
relative viability (HCC-827; first compound 0.2 µM): 0.193
relative viability (LCLC-103H; first compound 0.002 µM): 0.47
relative viability (LCLC-103H; first compound 0.006325 µM): 0.455
relative viability (LCLC-103H; first compound 0.02 µM): 0.44
relative viability (LCLC-103H; first compound 0.06325 µM): 0.497
relative viability (LCLC-103H; first compound 0.2 µM): 0.308
relative viability (NCI-H1355; first compound 0.002 µM): 0.518
relative viability (NCI-H1355; first compound 0.006325 µM): 0.577
relative viability (NCI-H1355; first compound 0.02 µM): 0.421
relative viability (NCI-H1355; first compound 0.06325 µM): 0.618
relative viability (NCI-H1355; first compound 0.2 µM): 0.226
relative viability (NCI-H1734; first compound 0.002 µM): 0.248
relative viability (NCI-H1734; first compound 0.006325 µM): 0.254
relative viability (NCI-H1734; first compound 0.02 µM): 0.252
relative viability (NCI-H1734; first compound 0.06325 µM): 0.143
relative viability (NCI-H1734; first compound 0.2 µM): 0.154
relative viability (NCI-H1793; first compound 0.002 µM): 0.345
relative viability (NCI-H1793; first compound 0.006325 µM): 0.346
relative viability (NCI-H1793; first compound 0.02 µM): 0.296
relative viability (NCI-H1793; first compound 0.06325 µM): 0.307
relative viability (NCI-H1793; first compound 0.2 µM): 0.13
relative viability (NCI-H1944; first compound 0.002 µM): 0.253
relative viability (NCI-H1944; first compound 0.006325 µM): 0.256
relative viability (NCI-H1944; first compound 0.02 µM): 0.22
relative viability (NCI-H1944; first compound 0.06325 µM): 0.197
relative viability (NCI-H1944; first compound 0.2 µM): 0.22
relative viability (NCI-H2009; first compound 0.002 µM): 0.766
relative viability (NCI-H2009; first compound 0.006325 µM): 0.746
relative viability (NCI-H2009; first compound 0.02 µM): 0.798
relative viability (NCI-H2009; first compound 0.06325 µM): 0.28
relative viability (NCI-H2009; first compound 0.2 µM): 0.114
relative viability (NCI-H2023; first compound 0.002 µM): 0.395
relative viability (NCI-H2023; first compound 0.006325 µM): 0.389
relative viability (NCI-H2023; first compound 0.02 µM): 0.343
relative viability (NCI-H2023; first compound 0.06325 µM): 0.0657
relative viability (NCI-H2023; first compound 0.2 µM): 0.0748
relative viability (NCI-H2085; first compound 0.002 µM): 0.804
relative viability (NCI-H2085; first compound 0.006325 µM): 0.749
relative viability (NCI-H2085; first compound 0.02 µM): 0.758
relative viability (NCI-H2085; first compound 0.06325 µM): 0.879
relative viability (NCI-H2085; first compound 0.2 µM): 0.607
relative viability (NCI-H2228; first compound 0.002 µM): 0.353
relative viability (NCI-H2228; first compound 0.006325 µM): 0.274
relative viability (NCI-H2228; first compound 0.02 µM): 0.139
relative viability (NCI-H2228; first compound 0.06325 µM): 0.101
relative viability (NCI-H2228; first compound 0.2 µM): 0.136
relative viability (NCI-H2347; first compound 0.002 µM): 0.592
relative viability (NCI-H2347; first compound 0.006325 µM): 0.407
relative viability (NCI-H2347; first compound 0.02 µM): 0.471
relative viability (NCI-H2347; first compound 0.06325 µM): 0.269
relative viability (NCI-H2347; first compound 0.2 µM): 0.198
relative viability (NCI-H2405; first compound 0.002 µM): 0.812
relative viability (NCI-H2405; first compound 0.006325 µM): 0.575
relative viability (NCI-H2405; first compound 0.02 µM): 0.808
relative viability (NCI-H2405; first compound 0.06325 µM): 0.34
relative viability (NCI-H2405; first compound 0.2 µM): 0.152
relative viability (NCI-H3122; first compound 0.002 µM): 0.451
relative viability (NCI-H3122; first compound 0.006325 µM): 0.39
relative viability (NCI-H3122; first compound 0.02 µM): 0.106
relative viability (NCI-H3122; first compound 0.06325 µM): 0.0834
relative viability (NCI-H3122; first compound 0.2 µM): 0.0832
relative viability (PC-14; first compound 0.002 µM): 0.567
relative viability (PC-14; first compound 0.006325 µM): 0.547
relative viability (PC-14; first compound 0.02 µM): 0.326
relative viability (PC-14; first compound 0.06325 µM): 0.0498
relative viability (PC-14; first compound 0.2 µM): 0.0697
relative viability (SW 1573; first compound 0.002 µM): 0.199
relative viability (SW 1573; first compound 0.006325 µM): 0.175
relative viability (SW 1573; first compound 0.02 µM): 0.173
relative viability (SW 1573; first compound 0.06325 µM): 0.113
relative viability (SW 1573; first compound 0.2 µM): 0.0892
